In US4960790A, “Derivatives of taxol, pharmaceutical compositions thereof and methods for the preparation thereof” (University of Kansas, priority 1989, dated 1990):
Where a name gives a salt, the structure may show the parent alone. Read-outs that look alike come from different tables or passages of the source.

Columns and labels:
Solubility = assay type: physicochemical
[1] = Chemical stability in buffer or water; assay type: physicochemical; details: 0.02 M acetate
Procedure: The compound was subjected to stability studies according to the following procedures.
(§1) Stabilities of derivatives at various pHs were studied at 25° and 37°. The plasma studies were conducted at 37° in rat and human plasma. Human plasma was obtained from Watkins Hospital and rat plasma was obtained from the Animal Care Unit of the University of Kansas. The derivative concentration used was around 20-25 μg/ml. A stock solution of the compound was prepared at 0.8-1.0 mg/mL and was added to plasma to give the desired concentration (20-25 μg/mL). One hundred microliter samples were removed and was quenched with 250 uL. acetonitrile and centrifuged to precipitate the plasma proteins. The degradation kinetics were studied by HPLC plotting peak area vs. time. The t90 and t50 were calculated. Both chemical and plasma studies were followed by high performance liquid chromatography using a RP-8 column (15 cm) and a precolumn (5 cm). The detector was set at 227 nm. The mobile phase consisted of 0.02M acetate (pH 5): acetonitrile 50:50 or 35:65 and the flow rate ranged from 1-1.5 mL/min or the same solvents containing 0.001M tetrabutylammoniumydrogensulphate and a flow rate of 1 mL/min.
The identity of this peak was further confirmed by the degradation studies of the new derivatives. Thus, 2'(DMG) taxol was incubated with water at 37° and the product was concentrated and purified by preparative TLC. The product after purification was analyzed by HPLC and spectroscopic methods.

[2] = Plasma stability, human plasma; assay type: in vitro ADME; details: human plasma (20 μg/mL), 37° C.
Procedure: as §1, with “The derivative concentration used was around 20-25 μg/ml. A stock solution of the compound was prepared at 0.8-1.0 mg/mL and was added to plasma to give the desired concentration (20-25 μg/mL).” left out

| SMILES | solubility (Solubility; read-out: Solubility) | half-life ([1]; pH 4.5, 25° C.) | half-life ([1]; pH 5.5, 25° C.) | solubility (Solubility) | half-life [2] |
| --- | --- | --- | --- | --- | --- |
| CC(=O)O[C@H]1C(=O)[C@]2(C)[C@@H](OC(=O)CN(C)C)C[C@H]3OC[C@@]3(OC(C)=O)[C@H]2[C@H](OC(=O)c2ccccc2)[C@]2(O)C[C@H](OC(=O)[C@H](OC(=O)CN(C)C)[C@@H](NC(=O)c3ccccc3)c3ccccc3)C(C)=C1C2(C)C [dimethanesulphonic acid salt of 2'7-(N,N-dimethylglycyl)taxol] | > 10000 µg/mL | – | – | – | – |
| CCN(CC)CCC(=O)O[C@@H](C(=O)O[C@H]1C[C@@]2(O)[C@@H](OC(=O)c3ccccc3)[C@@H]3[C@]4(OC(C)=O)CO[C@@H]4C[C@H](O)[C@@]3(C)C(=O)[C@H](OC(C)=O)C(=C1C)C2(C)C)[C@@H](NC(=O)c1ccccc1)c1ccccc1 [Compound 4, Methanesulphonic acid salt of 2'(N,N-diethylaminopropionyl)taxol] | – | 305 h | 20.7 h | > 10000 µg/mL | – |
| CC(=O)O[C@H]1C(=O)[C@]2(C)[C@@H](OC(=O)[C@H](C)N)C[C@H]3OC[C@@]3(OC(C)=O)[C@H]2[C@H](OC(=O)c2ccccc2)[C@]2(O)C[C@H](OC(=O)[C@H](O)[C@@H](NC(=O)c3ccccc3)c3ccccc3)C(C)=C1C2(C)C [Methanesulphonic acid salt of 7-(alanyl)taxol] | > 2000 µg/mL | – | – | – | 11.9 h |
